Activity calls are given as the source filed them. The rule behind the calls is not given here.
Columns and labels:
[1] = molecular target: T1, Tyrosine-protein phosphatase non-receptor type 1 (Homo sapiens, UniProt P18031); test: (§1) Inhibition of recombinant human PTP1B using pNPP as substrate measured after 30 mins
T1 sequence (P18031 whole entry): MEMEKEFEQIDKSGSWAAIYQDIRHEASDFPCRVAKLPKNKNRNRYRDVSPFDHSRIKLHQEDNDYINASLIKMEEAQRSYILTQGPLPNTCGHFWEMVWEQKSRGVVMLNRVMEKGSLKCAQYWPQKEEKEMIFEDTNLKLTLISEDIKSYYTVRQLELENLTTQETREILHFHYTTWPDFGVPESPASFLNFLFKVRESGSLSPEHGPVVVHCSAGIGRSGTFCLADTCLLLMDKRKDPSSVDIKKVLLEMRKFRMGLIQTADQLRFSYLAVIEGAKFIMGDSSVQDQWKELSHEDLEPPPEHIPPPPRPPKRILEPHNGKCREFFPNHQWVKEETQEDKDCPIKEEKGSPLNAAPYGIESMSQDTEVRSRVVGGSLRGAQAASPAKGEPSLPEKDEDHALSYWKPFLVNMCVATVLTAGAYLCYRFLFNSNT

[2] = molecular target: T2, Tyrosine-protein phosphatase non-receptor type 1 (Homo sapiens) (UniProt P18031); test: as §1
T2 sequence (whole entry): T1 sequence (P18031 whole entry)

Mus musculus [3] = test: Protection against hyperglycemia-induced liver injury in db/db mouse assessed as reduction in serum ALT level at 10 to 20 mg/kg, po administered every other day for 10 weeks measured post last dose; assay type: functional, organism-based
[4] = molecular target: T2, Tyrosine-protein phosphatase non-receptor type 1 (Homo sapiens); test: Inhibition of PTP1B in human HepG2 cells assessed as suppression of PA-induced insulin resistance by measuring increase in AKT phosphorylation at 10 uM preincubated for 1 hr followed by PA-stimulation for 24 hrs and subsequent insulin measured by immunoblotting analysis; assay type: cell-based
Mus musculus [5] = test: Protection against hyperglycemia-induced liver injury in db/db mouse assessed as reduction in serum total cholesterol level at 10 to 20 mg/kg, po administered every other day for 10 weeks measured post last dose; assay type: functional, organism-based
[6] = AUC (0 to t) in Sprague-Dawley rat at 20 mg/kg, ig administered as single dose by UPLC/MS/MS analysis; assay type: ADME, organism-based; settings: in vivo, po
[7] = AUC (0 to infinity) in Sprague-Dawley rat at 2 mg/kg, iv administered as single dose by UPLC/MS/MS analysis; assay type: ADME, organism-based; design: dose 2 mg/kg, route intravenous, time infinity; settings: in vivo
Mus musculus [8] = test: Protection against hyperglycemia-induced liver injury in db/db mouse assessed as increase in IRS1 phosphorylation in liver at 10 to 20 mg/kg, po administered every other day for 10 weeks measured post last dose by immunoblotting analysis; assay type: functional, organism-based
[9] = Tmax in Sprague-Dawley rat at 20 mg/kg, ig administered as single dose by UPLC/MS/MS analysis; assay type: ADME, organism-based; settings: in vivo, po
Mus musculus [10] = test: Protection against hyperglycemia-induced liver injury in db/db mouse assessed as reduction in serum AKP level at 10 to 20 mg/kg, po administered every other day for 10 weeks measured post last dose; assay type: functional, organism-based
[11] = Cmax in Sprague-Dawley rat at 20 mg/kg, ig administered as single dose by UPLC/MS/MS analysis; assay type: ADME, organism-based; design: dose 20 mg/kg, route […]; settings: in vivo, po
[12] = Cmax in Sprague-Dawley rat at 2 mg/kg, iv administered as single dose by UPLC/MS/MS analysis; assay type: ADME, organism-based; design: dose 2 mg/kg, route intravenous; settings: in vivo
Mus musculus [13] = test: Protection against hyperglycemia-induced liver injury in db/db mouse assessed as reduction in steatosis at 10 to 20 mg/kg, po administered every other day for 10 weeks measured post last dose by hematoxylin and eosin staining based light microscopic analysis; assay type: functional, organism-based
[14] = Tmax in Sprague-Dawley rat at 2 mg/kg, iv administered as single dose by UPLC/MS/MS analysis; assay type: ADME, organism-based; settings: in vivo
[15] = molecular target: T2, Tyrosine-protein phosphatase non-receptor type 1 (Homo sapiens); test: Potency index, ratio of […] IC50 to test compound IC50 for recombinant human PTP1B
Mus musculus [16] = test: Protection against hyperglycemia-induced liver injury in db/db mouse assessed as reduction in size and number of liver lipid droplets at 10 to 20 mg/kg, po administered every other day for 10 weeks measured post last dose by hematoxylin and eosin staining based light microscopic analysis; assay type: functional, organism-based
[17] = AUC (0 to infinity) in Sprague-Dawley rat at 20 mg/kg, ig administered as single dose by UPLC/MS/MS analysis; assay type: ADME, organism-based; design: dose 20 mg/kg, time infinity, route […]; settings: in vivo, po
[18] = Drug uptake in Sprague-Dawley rat at 20 mg/kg, ig administered as single dose measured after 4 hrs by UPLC/MS/MS analysis; assay type: ADME, organism-based; settings: in vivo, po
[19] = molecular target: T2, Tyrosine-protein phosphatase non-receptor type 1 (Homo sapiens); test: Inhibition of PTP1B in human HepG2 cells assessed as suppression of PA-induced insulin resistance by measuring increase in IRS1 phosphorylation at 5 uM preincubated for 1 hr followed by PA-stimulation for 24 hrs and subsequent insulin measured by immunoblotting analysis; assay type: cell-based
[20] = Apparent half-life of the terminal disposition phase in Sprague-Dawley rat at 2 mg/kg, iv administered as single dose by UPLC/MS/MS analysis; assay type: ADME, organism-based; settings: in vivo, read-out: t1/2 lambda z (converted)
[21] = Apparent half-life of the terminal disposition phase in Sprague-Dawley rat at 20 mg/kg, ig administered as single dose by UPLC/MS/MS analysis; assay type: ADME, organism-based; settings: in vivo, po, read-out: t1/2 lambda z (converted)
[22] = AUC (0 to t) in Sprague-Dawley rat at 2 mg/kg, iv administered as single dose by UPLC/MS/MS analysis; assay type: ADME, organism-based; settings: in vivo

| SMILES | IC50 ([1]; read-out: IC50) [µM] | inhibition [2] | also measured |
| --- | --- | --- | --- |
| C=CCc1cc(/C=C/C(=O)c2cccc(N3CCCCC3)c2)c(OC)cc1O | 7.2 | Dose-dependent effect | – |
| C=CCc1cc(/C=C/C(=O)c2ccc(OCC(=O)OCC)cc2)c(OC)cc1O | 9.4 | Dose-dependent effect | – |
| C[C@H]1[C@H](C)CC[C@]2(C(=O)O)CC[C@]3(C)C(=CC[C@@H]4[C@@]5(C)CC[C@H](O)C(C)(C)[C@@H]5CC[C@]43C)[C@H]12 | – | Dose-dependent effect | – |
| C=CCc1cc(/C=C/C(=O)c2cccc(NS(C)(=O)=O)c2)c(OC)cc1O | – | – | IC50 [1]: Not Active |
| C=CCc1cc(/C=C/C(=O)c2cccc(N(C)C)c2)c(OC(C)C)cc1O | 6.9 | Dose-dependent effect | – |
| C=CCc1cc(/C=C/C(=O)c2ccc(N3CCCCC3)cc2)c(OC)cc1O | 6.9 | Dose-dependent effect | – |
| C=CCc1cc(/C=C/C(=O)c2ccc(OC)c(CC=C(C)C)c2)c(OC)cc1O | 8.2 | Dose-dependent effect | – |
| C=CCc1cc(/C=C/C(=O)c2ccc(N3CCOCC3)cc2)c(OC)cc1O | 12.3 | Dose-dependent effect | – |
| C=CCc1cc(/C=C/C(=O)c2ccc(OC)cc2O)c(OC)cc1O | 24.8 | Dose-dependent effect | – |
| C=CC(C)(C)c1cc(/C=C/C(=O)c2ccc(O)cc2)c(OC)cc1O | – | Dose-dependent effect | – |
| C=CCc1cc(/C=C/C(=O)c2ccc(OCCCC(=O)OCC)cc2)c(OC)cc1O | 25.6 | Dose-dependent effect | – |
| C=CCc1cc(/C=C/C(=O)c2ccc(OCC(=O)O)cc2)c(OC)cc1O | 12.6 | Dose-dependent effect | – |
| C=CCc1cc(/C=C/C(=O)c2ccccc2N2CCCCC2)c(OC)cc1O | 9.5 | Dose-dependent effect | – |
| C=CCc1cc(/C=C/C(=O)c2ccc(N(C)C)cc2)c(OC)cc1O | 6.9 | Dose-dependent effect | – |
| C=CCc1cc(/C=C/C(=O)c2cc3c(cc2N(C)C)OCO3)c(OC)cc1O | 11.8 | Dose-dependent effect | – |
| C=CCc1cc(/C=C/C(=O)c2ccc(OC)c(CC=C)c2)c(OC)cc1O | 10.9 | Dose-dependent effect | – |
| C=CCc1cc(/C=C/C(=O)c2cccc(O)c2)c(OC)cc1O | – | – | IC50 [1]: Not Active |
| C=CCc1cc(/C=C/C(=O)c2ccccc2N(C)C)c(OC)cc1O | 16.3 | Dose-dependent effect | – |
| C=CCc1cc(/C=C/C(=O)c2ccc(OC)cc2)c(OC)cc1O | 7.4 | Dose-dependent effect | – |
| C=CCc1cc(/C=C/C(=O)c2ccc(O)cc2)c(OC)cc1OC1CCCCO1 (stereo not drawn) | 9.4 | Dose-dependent effect | – |
| C=CCc1cc(/C=C/C(=O)c2ccc(O)cc2)c(OC)cc1O | 12.9 | Dose-dependent effect | – |
| C=CCc1cc(/C=C/C(=O)c2cccc(OC)c2)c(OC)cc1O | 14.6 | Dose-dependent effect | – |
| C=CCc1cc(/C=C/C(=O)c2ccc(OCCCC(=O)O)cc2)c(OC)cc1O | 32.8 | – | – |
| C=CCOc1ccc(C(=O)/C=C/c2cc(CC=C)c(OC3CCCCO3)cc2OC)c(O)c1 (stereo not drawn) | – | – | IC50 [1]: Not Active |

Continued, in another order:

| IC50 ([1]; read-out: IC50) [µM] | inhibition [2] | SMILES | also measured |
| --- | --- | --- | --- |
| 3.9 | Dose-dependent effect | C=CCOc1ccc(C(=O)/C=C/c2cc(CC=C)c(O)cc2OC)c(OC)c1 | – |
| 5.4 | Dose-dependent effect | C=CCc1cc(/C=C/C(=O)c2ccc(OC)c(C(C)C(=C)C)c2)c(OC)cc1O (stereo not drawn) | – |
| 0.57 | Dose-dependent effect | C=CCc1cc(/C=C/C(=O)c2cccc(N(C)C)c2)c(OC)cc1O | Activity (Mus musculus [3]): Active; inhibition [4]: Active; Activity (Mus musculus [5]): Active; AUC(0-t) [6]: 584 ng·h/mL; AUC(0-inf) [7]: 1620 ng·h/mL; Activity (Mus musculus [8]): Active; Tmax [9]: 14 h; Activity (Mus musculus [10]): Active; Cmax [11]: 46.2 ng/mL; Cmax [12]: 2150 ng/mL; Activity (Mus musculus [13]): Active; Tmax [14]: 4.8 min; Ratio IC50 [15]: 6; Activity (Mus musculus [16]): Active; AUC [17]: 605.52 ng·h/mL; Drug uptake [18]: Active; inhibition [19]: Active; half-life [20]: 21.1 h; half-life [21]: 8.85 h; AUC(0-t) [22]: 1430 ng·h/mL |
| 6.5 | Dose-dependent effect | C=CCOc1ccc(C(=O)/C=C/c2cc(CC=C)c(O)cc2OC)c(O)c1 | – |
| 5.8 | Dose-dependent effect | C=CCc1cc(/C=C/C(=O)c2ccc(OCCCCC(=O)O)cc2)c(OC)cc1O | – |
| 5.3 | Dose-dependent effect | C=CCc1cc(/C=C/C(=O)c2ccc(OCC)cc2)c(OC)cc1O | – |
| 3 | Dose-dependent effect | C=CCc1cc(/C=C/C(=O)c2ccc(OCC=C(C)C)cc2O)c(OC)cc1O | – |
| 4.6 | Dose-dependent effect | C=CCc1cc(/C=C/C(=O)c2ccc(OC(=O)c3ccccc3)cc2)c(OC)cc1O | – |
| 3.9 | Dose-dependent effect | C=CCc1cc(/C=C/C(=O)c2ccc(OCCCCC(=O)OCC)cc2)c(OC)cc1O | – |
| 5.9 | Dose-dependent effect | C=CCc1cc(/C=C/C(=O)c2ccc(OCC=C(C)C)cc2)c(OC)cc1O | – |
| 6.3 | Dose-dependent effect | C=CCc1cc(/C=C/C(=O)c2ccc(-n3cccn3)cc2)c(OC)cc1O | – |
| 5.9 | Dose-dependent effect | C=CCc1cc(/C=C/C(=O)c2ccc(N(CC=C)CC=C)cc2)c(OC)cc1O | – |
| 4.7 | Dose-dependent effect | C=CCc1cc(/C=C/C(=O)c2cccc(N(CC=C)CC=C)c2)c(OC)cc1O | – |
| 4 | Dose-dependent effect | C=C(C)[C@H](C)c1cc(/C=C/C(=O)c2ccc(O)cc2)c(OC)cc1O [LICOCHALCONE E] | – |
| 5.4 | Dose-dependent effect | C=CCOc1ccc(C(=O)/C=C/c2cc(CC=C)c(O)cc2OC)cc1 | – |
| 6.6 | Dose-dependent effect | C=CCc1cc(/C=C/C(=O)c2ccc(OC(=O)c3ccc(Br)cc3)cc2)c(OC)cc1O | – |
| 5 | Dose-dependent effect | C=CCc1cc(/C=C/C(=O)c2cccc(N(C)C)c2)c(OCc2ccccc2)cc1O | – |
| 5 | Dose-dependent effect | C=CCc1cc(/C=C/C(=O)c2ccc(OC(=O)c3ccc(C(C)(C)C)cc3)cc2)c(OC)cc1O | – |
